Source: paper PMC6960228, “Ethoxysanguinarine, a Novel Direct Activator of AMP-Activated Protein Kinase, Induces Autophagy and Exhibits Therapeutic Potential in Breast Cancer Cells” (Frontiers in Pharmacology, 2020)

Legend:
[1] = system: LC3-II and Beclin-1 in MCF-7, MDA-MB-231, and MDA-MB-436 cells; assay: Western blot of autophagy markers; assay type: cell-based, human; conditions: Eth 2.4, 2.0 or 2.0 µM and 3-MA 1 mM, 24 h
Description: Cells were lysed in radioimmunoprecipitation assay buffer containing 50 mM Tris, pH 8.0, 150 mM NaCl, 0.1% SDS, 0.5% sodium deoxycholate, 1% NP-40, 1 mM DTT, 1 mM NaF, 1 mM sodium orthovanadate, 1 mM phenylmethylsulfonyl fluoride (PMSF; Sigma-Aldrich; Merck KGaA), and 1% protease inhibitors cocktail (EMD Millipore, Billerica, MA, USA). Protein concentration was determined using the Bradford method. Equal amounts of sample (25 µg) were separated by SDS-PAGE (8–12% gels). Electrophoresed proteins were then transferred onto polyvinylidene fluoride membranes (EMD Millipore, Billerica, MA, USA). The membranes were blocked with 5% skimmed milk in Tris-buffered saline at room temperature for 1 h. Following blocking, membranes were incubated overnight at 4°C with primary antibodies and then rinsed with Tris-buffered saline with Tween 20. […]
(§1) Figure 2 Eth induces autophagy in BC cells. […] (C): MCF-7, MDA-MB-231, or MDA-MB-436 cells transfected with pQCXIP-GFP-LC3 plasmid were treated with increasing concentrations of Eth for 24 h, and assessed by immunoﬂuorescence analyses. […] (D): MDA-MB-231 or MDA-MB-436 cells transfected with pQCXIP-GFP-LC3 plasmid were treated with Eth (2.0 µM) and/or 3-MA (1 mM) for 24 h, and assessed by immunoﬂuorescence analyses. […] (F): MCF-7, MDA-MB-231, or MDA-MB-436 cells were treated with Eth (3.5 µM, 3.0 µM, or 3.0 µM) and/or 3-MA (1 mM) for 24 h and analyzed by MTT assay. […]

[2] = system: LC3 redistribution to autophagosomes in BC cells; assay: GFP-LC3 autophagy assay (confocal microscopy); assay type: cell-based, human; conditions: 24 h
From the text: The cells were transfected with pQCXIP-GFP-LC3 plasmid using the Lipofectamine 3000 (Invitrogen; Thermo Fisher Scientific, Inc.) according to the recommended protocol by the manufacturer and then fixed in 4% paraformaldehyde. The percentage of cells with fluorescent dots representing GFP-LC3 translocation was counted. For visualization of cell nucleus, DAPI was used. Sections were observed using an Olympus laser scanning confocal microscope with imaging software (Olympus Fluoview FV-1000, Tokyo, Japan).
Figure 2 Eth induces autophagy in BC cells. (A): MCF-7, MDA-MB-231, or MDA-MB-436 cells were treated with increasing concentrations of Eth for 24 h. Western blot was performed using antibodies indicated. GAPDH was used as the loading control. (B): MCF-7 (MDA-MB-231 or MDA-MB-436) cells were treated with 2.4 µM (2.0 µM or 2.0 µM) Eth for the indicated times, and cell lysates were subjected to western blot assay. (C): MCF-7, MDA-MB-231, or MDA-MB-436 cells transfected with pQCXIP-GFP-LC3 plasmid were treated with increasing concentrations of Eth for 24 h, and assessed by immunoﬂuorescence analyses. Scale bar = 20 µm. (D): MDA-MB-231 or MDA-MB-436 cells transfected with pQCXIP-GFP-LC3 plasmid were treated with Eth (2.0 µM) and/or 3-MA (1 mM) for 24 h, and assessed by immunoﬂuorescence analyses. Scale bar = 20 µm. […] (F): MCF-7, MDA-MB-231, or MDA-MB-436 cells were treated with Eth (3.5 µM, 3.0 µM, or 3.0 µM) and/or 3-MA (1 mM) for 24 h and analyzed by MTT assay. (G): MCF-7, MDA-MB-231, or MDA-MB-436 cells were treated with Eth (2.4 µM, 2.0 µM, or 2.0 µM) and/or 3-MA (1 mM) for 24 h, and western blot was performed using antibodies indicated. *P < 0.05.
(§2) Figure 3 Eth induces autophagy through the AMPK/mTORC1 signaling. […] (D): MDA-MB-231 or MDA-MB-436 cells transfected with pQCXIP-GFP-LC3 plasmid were treated with Eth (2.0 µM) and/or CC (25 µM) for 24 h, and assessed by immunoﬂuorescence analyses. […] (G): MDA-MB-231 or MDA-MB-436 cells transfected with pQCXIP-GFP-LC3 plasmid were treated with Eth (1.0 µM or 1.6 µM) and/or Met (10 mM) for 24 h, and assessed by immunoﬂuorescence analyses. […]

[3] = system: MCF-7, MDA-MB-231, or MDA-MB-436 cells; assay: MTT assay, Eth and/or 3-MA; assay type: cell-based, human; conditions: Eth 3.5, 3.0 or 3.0 µM and 3-MA 1 mM, 24 h
Description: (§3) Cells were seeded into 96-well plate and pre-cultured for 24 h, then treated with Eth for 24. Cell cytotoxicity was determined by MTT assay. The absorbance was measured at 490 nm by automated microplated reader (BioTek Instruments, Inc., Winooski, VT, USA), and the cell death rate was calculated as followed: inhibition rate (%) = (average A490 of the control group − average A490 of the experimental group)/(average A490 of the control group − average A490 of the blank group) × 100%. Cell viability was estimated by trypan blue dye exclusion.
as §1, with “cells. (A): MCF-7, MDA-MB-231, or MDA-MB-436 cells were treated with increasing concentrations of Eth for 24 h. Western blot was performed using antibodies indicated. GAPDH was used as the loading control.” for “cells.”

[4] = system: AMPK/mTORC1 signaling in MCF-7, MDA-MB-231, and MDA-MB-436 cells; assay: Western blot of AMPK/mTORC1 signaling; assay type: cell-based, human; conditions: 24 h
Description: Cells were lysed in radioimmunoprecipitation assay buffer containing 50 mM Tris, pH 8.0, 150 mM NaCl, 0.1% SDS, 0.5% sodium deoxycholate, 1% NP-40, 1 mM DTT, 1 mM NaF, 1 mM sodium orthovanadate, 1 mM phenylmethylsulfonyl fluoride (PMSF; Sigma-Aldrich; Merck KGaA), and 1% protease inhibitors cocktail (EMD Millipore, Billerica, MA, USA). Protein concentration was determined using the Bradford method. Equal amounts of sample (25 µg) were separated by SDS-PAGE (8–12% gels). Electrophoresed proteins were then transferred onto polyvinylidene fluoride membranes (EMD Millipore, Billerica, MA, USA). The membranes were blocked with 5% skimmed milk in Tris-buffered saline at room temperature for 1 h. Following blocking, membranes were incubated overnight at 4°C with primary antibodies and then rinsed with Tris-buffered saline with Tween 20. The following primary antibodies were used: anti-Glut3 (1:500; catalog no. sc-74399) (Santa Cruz Biotechnology, Inc., Dallas, TX, USA); anti-LC3 (1:1000; catalog no. 12741), anti-AMPKα (1:1000; catalog no. 2532), anti-phospho-AMPKα (Thr172) (1:1000; catalog no. 2535), anti-phospho-AMPKβ1 (Ser108) (1:1000; catalog no. 4181), anti-AMPKγ1 (1:1000; catalog no. 4187), anti-mTOR (1:1000; catalog no. 2983), anti-phospho-mTOR (Ser2448) (1:1000; catalog no. 5536), anti-P70S6K (1:1000; catalog no. 9202), anti-phospho-P70S6K (Thr389) (1:1000; catalog no. 92775), anti-4E-BP1 (1:1000; catalog no. 9234), anti-phospho-4E-BP1 (Thr37/46) (1:1000; catalog no. 2855), anti-ACC (1:1000; catalog no. 3676), anti-phospho-ACC ([…]) (1:1000; catalog no. 11818), anti-Glut1 (1:1000; catalog no. 12939), anti-Glut4 (1:1000; catalog no. 2213) (All Cell Signaling Technology, Inc., Danvers, MA, USA), and anti-GAPDH (1:5000; catalog no. M20006; Abmart, Shanghai, China). Membranes were then washed, and incubated with horseradish peroxidase-conjugated secondary antibody (1:10000; E030120-01 and E030110-01; EarthOx, LLC, San Francisco, CA, USA) for 1.5 h at room temperature. The protein bands were visualized using SuperSignal® West Pico PLUS Chemiluminescent substrate (catalog no. 34579; Pierce; Thermo Fisher Scientific, Inc., Rockford, IL, USA) ([Zhang et al., 2018]).
as §2, with “signaling. (A): MCF-7, MDA-MB-231, or MDA-MB-436 cells were treated with increasing concentrations of Eth for 24 h. Western blot was performed using antibodies indicated.” for “signaling.”

MCF-7 = assay: MTT cytotoxicity assay; assay type: cell-based; conditions: Homo sapiens, MCF7, MCF-7, 24 h
From the text: (§4) Human BC cell lines MCF-7, MDA-MB-231, DMA-MB-436, SK-BR3, MDA-MB-468, MDA-MB-453, and MDA-MB-435S and non-tumorigenic MCF-10A human mammary epithelial cells were obtained from American Type Culture Collection (ATCC; Manassas, VA, USA). MCF-7, SK-BR3, MDA-MB-231, and MDA-MB-436 cells were maintained in Dulbecco’s modified Eagle’s medium (DMEM; high glucose; Gibco; Thermo Fisher Scientific, Inc., Waltham, MA, USA) supplemented with 10% fetal bovine serum (FBS; HyClone; Logan, UT, USA) and antibiotics and incubated in a humidified atmosphere with 5% CO2 at 37°C. MDA-MB-468, MDA-MB-453, and MDA-MB-435S cells were maintained in Leibovitz’s L-15 (Gibco) supplemented with 10% FBS and antibiotics and incubated in a humidified atmosphere without CO2 at 37°C. MCF-10A cells were maintained in DMEM/F12 medium containing 5% horse serum (HS), insulin ([…]), epidermal growth factor (EGF, 20 ng/mL), choleratoxin ([…]), hydrocortisone ([…]), penicillin (50 U/mL), and streptomycin (50 U/mL), and incubated in a humidified atmosphere with CO2 at 37°C.
as §3

MDA-MB-231 = assay: MTT cytotoxicity assay; assay type: cell-based; conditions: Homo sapiens, MDA-MB-231, 24 h
From the text: as §4, §3

MDA-MB-436 = assay: MTT cytotoxicity assay; assay type: cell-based; conditions: Homo sapiens, MDA-MB-436, 24 h
From the text: as §4, §3

AMPKα = assay: Streptavidin agarose affinity assay; assay type: binding, human; conditions: cells treated with 4 μM Bio-Eth for 12 h
Description: Cell pellets were lysed and the supernatant collection was incubated with indicated antibodies overnight at 4°C, after which protein A/G Plus beads (Santa Cruz Biotechnology) were added and incubated at 4°C for 4 h. The beads were washed 4 times in NETN buffer (1% NP-40, 2 mM EDTA, 40 mM Tris-HCl, 137 mM NaCl, pH 7.4), resuspended in SDS-PAGE loading buffer and boiled for 5 min. For streptavidin agarose affinity assay, cells upon Bio-Eth were lysed; the lysates were incubated with streptavidin agarose, washed and boiled in SDS-PAGE loading buffer. […] Western blot assays were performed.
Figure 4 Eth is a direct activator of AMPK. (A): MCF-7, MDA-MB-231, or MDA-MB-436 cells were treated with increasing concentrations of Eth for 24 h, and AMPK activity assay was performed. (B): The binding mode of Eth docked into AMPK. (C): The binding mode of Eth docked into AMPK. α subunit is green, β subunit is cyan, γ subunit is magenta and Eth is gold. (D): Details of the binding site of Eth in the ADaM site of AMPK. The main residues involved in drug interactions are shown as labeled green sticks. α subunit is green, β subunit is cyan. The pSER-108 was shown in stick and colored by gold. (E) The interaction pattern of Eth with the residues. […] (H): Viability of MCF-7, MDA-MB-231 or MDA-MB-436 cells exposed to Biotin-Eth as determined by MTT assay. […]

Cn1cnc(=N)c2[nH]cnc21 [3-MA]
effect of 3-MA on upregulation of LC-3II and Beclin1 by Eth [1]: antagonized the upregulation of autophagy-related proteins LC-3II and Beclin1 | effect of 3-MA on induction of autophagy by Eth ([2]; Eth 2.0 µM and 3-MA 1 mM): antagonize the induction of autophagy by Eth | effect of 3-MA on cell proliferation inhibited by Eth [3]: significantly reversed the cell proliferation inhibited by Eth

c1cc(-c2cnn3cc(-c4ccc(OCCN5CCCCC5)cc4)cnc23)ccn1 [CC, reference compound]
effect of CC on LC-3II expression and autophagic vacuoles in Eth-treated cells ([2]; Eth 2.0 µM and CC 25 µM): reversed the increased LC-3II expression and number of autophagic vacuoles | effect of CC on Eth-induced reduction in mTORC1 phosphorylation ([4]; Eth 2.4, 2.0 or 2.0 µM and CC 25 µM): reversed the reduction in phosphorylation

CN(C)C(=N)N=C(N)N [metformin, reference compound]
effect of metformin co-treatment on Eth action on mTORC1 phosphorylation and autophagy ([4]; Eth 1.6, 1.0 or 1.6 µM and Met 10 mM): enhanced the effect of Eth on the phosphorylation of mTORC1 and autophagy

CN1c2c(ccc3cc4c(cc23)OCO4)-c2ccc3c(c2C1OC(=O)CCCCC1SCC2NC(=O)NC21)OCO3 (stereo not shown) [Bio-Eth]
IC50 (MCF-7): 3.78 µM | IC50 (MDA-MB-231): 3.74 µM | IC50 (MDA-MB-436): 3.71 µM | pull-down of AMPKα by streptavidin agarose (AMPKα): AMPKα was pulled down by streptavidin agarose
